Reference: patent US6814988B2, “Process for optimizing milk production” (Novus International, Inc., priority 1997, dated 2004)
Like-named read-outs stand apart in the source and are kept apart here.

Key:
in vivo = conditions: female, cow
[1] = Amount of methionine hydroxy analog bypassing the rumen and available for absorption, summary of experimental evidence; format: in vivo, ruminant
Excerpt: Everything considered, therefore, the amount of the hydroxy analog of methionine which bypasses the rumen and is available for absorption is between about 40% and about 55%.

[2] = Lactation study, Alimet in close-up dry period and early lactation diets (Example 2); format: in vivo, cows
Description: The diets (Table IV) were formulated to include Alimet® to meet the methionine requirements as determined using existing computer modeling technology (CNCPS and DAIRYLP). The diets were balanced to meet amino acid requirements and included standard feed ingredients used in dairy rations. In the absence of added Alimet®, the control diet was predicted to be first limiting in methionine. The estimated need for methionine was approximately 9 grams per day. Alimet® was added assuming an availability to the ruminant of 20%.
This study included 10 multiparous and five primiparous cows per treatment, supplemented with Alimet® for two weeks before calving and for 12 weeks of lactation. […] At peak milk yield, Alimet-fed multiparous cows produced 7.9 kg/d more FCM than unsupplemented cows (42.0 vs 34.1 kg/d). The benefits of supplying post ruminal amino acid would appear to be greatest during the close-up dry period and early lactation.

[3] = female, cow, in vivo
[4] = Rumen bypass and gastrointestinal availability of HMB in rumen- and duodenum-cannulated lactating dairy cows (Example 1); conditions: for Chromium Concentration: 3 g Cr into rumen
[5] = duodenal fluid, 3 to 24 hours, cow 124
[6] = duodenal fluid, 3 to 24 hours, cow 131
[7] = duodenal fluid, 3 to 24 hours, cow 133
[8] = duodenal fluid, 3 to 24 hours, cow 138
[9] = duodenal fluid, 3 to 24 hours, mean of four cows
[10] = rumen fluid, 1 to 24 hours, cow 24
[11] = rumen fluid, 1 to 24 hours, cow 131
[12] = rumen fluid, 1 to 24 hours, cow 133
[13] = rumen fluid, 1 to 24 hours, cow 138
[14] = rumen fluid, 1 to 24 hours, mean of four cows

CSCCC(O)C(=O)O (stereo not drawn) [HMB, DL, 2-hydroxy-4-[methylthio]butanoic acid]
bioavailability (in vivo): 40% | concentration at 0 h (in vivo; HMB Concentration): < 10000 ng/mL | concentration at 24 h (in vivo; HMB Concentration): < 10000 ng/mL | concentration at 24 h (in vivo; rumen concentration of HMB): < 10000 ng/mL | amount absorbed by the omasum ([1]; additional experimental evidence): about 8.8% | amount which by-passes the rumen ([1]; experimental bypass data and field work with dairy cattle (milk response), molecular basis): at least 40% | amount which bypasses the rumen and is available for absorption ([1]; fed in the absence of a bypass fat, molecular basis, experimental evidence to date): at least 20% | more FCM than unsupplemented cows ([2]; multiparous cows at peak milk yield): 7.9 kg/day | FCM production ([2]; multiparous cows at peak milk yield, unsupplemented 34.1): 42.0 kg/day | milk protein content, higher than unsupplemented cows ([2]; supplemented two weeks before calving and 12 weeks of lactation): not | milk fat content ([2]; supplemented two weeks before calving and 12 weeks of lactation, unsupplemented 3.71%): 4.01% | fat-corrected content (FCM) production ([2]; supplemented two weeks before calving and 12 weeks of lactation, unsupplemented 29.2): 33.4 kg/day | milk production ([2]; supplemented two weeks before calving and 12 weeks of lactation, unsupplemented 31.3): 33.9 kg/day | percent of the HMB dose absorbed in the omasum [3]: 8.8% | percent of the HMB dose bypassing the rumen fermentation [3]: 40% | percent of the HMB dose that disappeared (was degraded) in the rumen [3]: 60% | percent of the HMB that passed to the small intestine [3]: 31.2% | rate constant for microbial degradation of HMB within the rumen [3]: −0.1962 | time by which rumen and duodenal HMB and serum methionine had returned to pre-dose levels [3]: ≤ 12 h | time of peak duodenal HMB concentration [3]: 3 h | time of peak ruminal HMB concentration [3]: 1 h | time of peak serum methionine concentration [3]: 6 h | HMB Concentration ([3]; 0 h): <10 µg/mL | increase in serum methionine above pre-dose levels at the peak concentration ([3]; 6 h): 200% | HMB Concentration ([3]; 24 h): <10 µg/mL

chromium-EDTA
Chromium Concentration ([4]; duodenal fluid, 0 h, cow 124): 1.36 µg/mL | Chromium Concentration ([4]; duodenal fluid, 0 h, cow 131): 0.05 µg/mL | Chromium Concentration ([4]; duodenal fluid, 0 h, cow 133): 0.05 µg/mL | Chromium Concentration ([4]; duodenal fluid, 0 h, cow 138): 0.02 µg/mL | Constant, linear regression of natural logarithm of Cr concentration versus time [4, 5]: 3.0038 | K (fractional rate constant), Chromium [4, 5]: −.0705 | Constant, linear regression of natural logarithm of Cr concentration versus time [4, 6]: 3.5284 | K (fractional rate constant), Chromium [4, 6]: −.1201 | Constant, linear regression of natural logarithm of Cr concentration versus time [4, 7]: 3.6342 | K (fractional rate constant), Chromium [4, 7]: −.1173 | Constant, linear regression of natural logarithm of Cr concentration versus time [4, 8]: 3.7419 | K (fractional rate constant), Chromium [4, 8]: −.1135 | Constant, linear regression of natural logarithm of Cr concentration versus time [4, 9]: 3.4771 | K (fractional rate constant), Chromium; rate constant for passage of the Cr marker to the duodenum [4, 9]: −.1053 | K (fractional rate constant), Chromium; rate constant for passage of the Cr marker to the duodenum ([4]; duodenal fluid, 3 to 24 hours, mean of four cows, listed as Cr): −0.1053 | Chromium Concentration ([4]; duodenal fluid, 1 h, cow 124): 11.69 µg/mL | Chromium Concentration ([4]; duodenal fluid, 1 h, cow 131): 23.80 µg/mL | Chromium Concentration ([4]; duodenal fluid, 1 h, cow 133): 12.14 µg/mL | Chromium Concentration ([4]; duodenal fluid, 1 h, cow 138): 17.98 µg/mL | Chromium Concentration ([4]; duodenal fluid, 3 h, cow 124): 18.30 µg/mL | Chromium Concentration ([4]; duodenal fluid, 3 h, cow 131): 24.55 µg/mL | Chromium Concentration ([4]; duodenal fluid, 3 h, cow 133): 25.41 µg/mL | Chromium Concentration ([4]; duodenal fluid, 3 h, cow 138): 27.23 µg/mL | Chromium Concentration ([4]; duodenal fluid, 6 h, cow 124): 11.99 µg/mL | Chromium Concentration ([4]; duodenal fluid, 6 h, cow 131): 17.86 µg/mL | Chromium Concentration ([4]; duodenal fluid, 6 h, cow 133): 18.42 µg/mL | Chromium Concentration ([4]; duodenal fluid, 6 h, cow 138): 23.24 µg/mL | Chromium Concentration ([4]; duodenal fluid, 9 h, cow 124): 11.00 µg/mL | Chromium Concentration ([4]; duodenal fluid, 9 h, cow 131): 12.16 µg/mL | Chromium Concentration ([4]; duodenal fluid, 9 h, cow 133): 16.36 µg/mL | Chromium Concentration ([4]; duodenal fluid, 9 h, cow 138): 19.26 µg/mL | Chromium Concentration ([4]; duodenal fluid, 12 h, cow 124): 7.89 µg/mL | Chromium Concentration ([4]; duodenal fluid, 12 h, cow 131): 6.39 µg/mL | Chromium Concentration ([4]; duodenal fluid, 12 h, cow 133): 7.89 µg/mL | Chromium Concentration ([4]; duodenal fluid, 12 h, cow 138): 8.39 µg/mL | Chromium Concentration ([4]; duodenal fluid, 24 h, cow 124): 3.88 µg/mL | Chromium Concentration ([4]; duodenal fluid, 24 h, cow 131): 2.06 µg/mL | Chromium Concentration ([4]; duodenal fluid, 24 h, cow 133): 2.29 µg/mL | Chromium Concentration ([4]; duodenal fluid, 24 h, cow 138): 2.85 µg/mL | Chromium Concentration ([4]; rumen fluid, 0 h, cow 124): 0.04 µg/mL | Chromium Concentration ([4]; rumen fluid, 0 h, cow 131): 0.07 µg/mL | Chromium Concentration ([4]; rumen fluid, 0 h, cow 133): 0.01 µg/mL | Chromium Concentration ([4]; rumen fluid, 0 h, cow 138): 0.02 µg/mL | Constant, linear regression of natural logarithm of Cr concentration versus time [4, 10]: 3.4702 | K (fractional rate constant), Chromium [4, 10]: −.0940 | Constant, linear regression of natural logarithm of Cr concentration versus time [4, 11]: 2.7330 | K (fractional rate constant), Chromium [4, 11]: −.1576 | Constant, linear regression of natural logarithm of Cr concentration versus time [4, 12]: 3.7310 | K (fractional rate constant), Chromium [4, 12]: −.1302 | Constant, linear regression of natural logarithm of Cr concentration versus time [4, 13]: 3.9905 | K (fractional rate constant), Chromium [4, 13]: −.1411 | Constant, linear regression of natural logarithm of Cr concentration versus time [4, 14]: 3.7312 | K (fractional rate constant), Chromium; rate of passage of the liquid marker from the rumen [4, 14]: −.1307 | K (fractional rate constant), Chromium; rate of passage of the liquid marker from the rumen ([4]; rumen fluid, 1 to 24 hours, mean of four cows, listed as Cr): −0.1307 | Chromium Concentration ([4]; rumen fluid, 1 h, cow 124): 31.83 µg/mL | Chromium Concentration ([4]; rumen fluid, 1 h, cow 131): 36.27 µg/mL | Chromium Concentration ([4]; rumen fluid, 1 h, cow 133): 40.44 µg/mL | Chromium Concentration ([4]; rumen fluid, 1 h, cow 138): 45.51 µg/mL | Chromium Concentration ([4]; rumen fluid, 3 h, cow 124): 23.77 µg/mL | Chromium Concentration ([4]; rumen fluid, 3 h, cow 131): 29.11 µg/mL | Chromium Concentration ([4]; rumen fluid, 3 h, cow 133): 34.52 µg/mL | Chromium Concentration ([4]; rumen fluid, 3 h, cow 138): 37.05 µg/mL | Chromium Concentration ([4]; rumen fluid, 6 h, cow 124): 19.29 µg/mL | Chromium Concentration ([4]; rumen fluid, 6 h, cow 131): 18.09 µg/mL | Chromium Concentration ([4]; rumen fluid, 6 h, cow 133): 16.62 µg/mL | Chromium Concentration ([4]; rumen fluid, 6 h, cow 138): 27.94 µg/mL | Chromium Concentration ([4]; rumen fluid, 9 h, cow 124): 12.93 µg/mL | Chromium Concentration ([4]; rumen fluid, 9 h, cow 131): 8.89 µg/mL | Chromium Concentration ([4]; rumen fluid, 9 h, cow 133): 10.79 µg/mL | Chromium Concentration ([4]; rumen fluid, 9 h, cow 138): 13.89 µg/mL | Chromium Concentration ([4]; rumen fluid, 12 h, cow 124): 9.16 µg/mL | Chromium Concentration ([4]; rumen fluid, 12 h, cow 131): 5.04 µg/mL | Chromium Concentration ([4]; rumen fluid, 12 h, cow 133): 7.86 µg/mL | Chromium Concentration ([4]; rumen fluid, 12 h, cow 138): 8.28 µg/mL | Chromium Concentration ([4]; rumen fluid, 24 h, cow 124): 3.62 µg/mL | Chromium Concentration ([4]; rumen fluid, 24 h, cow 131): 1.07 µg/mL | Chromium Concentration ([4]; rumen fluid, 24 h, cow 133): 2.08 µg/mL | Chromium Concentration ([4]; rumen fluid, 24 h, cow 138): 1.97 µg/mL
